Consider 12 molecules from ChEMBL document CHEMBL6074707, “Targeting Cancer: A New Era in Cancer Therapy through Immune Fitness Modulation and KRAS Degradation” (ACS Med Chem Lett, 2024).

By DC50 is commonly meant the concentration at which degradation of the target reaches its halfway point. For orientation: Emax means the maximal effect, on the per cent scale that the assay sets.

The target of experiment [1] is Protein cereblon/GTPase KRas (Homo sapiens, UniProt P01116+Q96SW2, G12D). The experiment can be described thus: PROTAC activity at CRBN/KRAS G12D mutant in human ASPC1 cells assessed as induction of protein degradation incubated for 24 hrs by Western blot analysis. The format is cell-based. Background: In western blotting, separated proteins are transferred to a membrane and probed.

In experiment [2] the test system is Protein cereblon/GTPase KRas (Homo sapiens), P01116+Q96SW2 [G12D]. The experiment can be described thus: PROTAC activity at CRBN/KRAS G12D mutant in human ASPC1 cells assessed as induction of protein degradation incubated for 24 hrs by Western blot analysis relative to control. The format is cell-based.
Sequence of Protein cereblon/GTPase KRas (Homo sapiens), P01116+Q96SW2 [G12D] (P01116 whole entry G12D): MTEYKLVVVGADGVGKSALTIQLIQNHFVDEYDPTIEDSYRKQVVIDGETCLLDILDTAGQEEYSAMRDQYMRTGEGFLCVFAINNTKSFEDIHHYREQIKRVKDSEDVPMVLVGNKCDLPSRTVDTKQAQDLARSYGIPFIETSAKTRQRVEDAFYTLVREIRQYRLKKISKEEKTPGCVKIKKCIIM
Sequence of Protein cereblon/GTPase KRas (Homo sapiens), P01116+Q96SW2 [G12D] (Q96SW2 whole entry partner): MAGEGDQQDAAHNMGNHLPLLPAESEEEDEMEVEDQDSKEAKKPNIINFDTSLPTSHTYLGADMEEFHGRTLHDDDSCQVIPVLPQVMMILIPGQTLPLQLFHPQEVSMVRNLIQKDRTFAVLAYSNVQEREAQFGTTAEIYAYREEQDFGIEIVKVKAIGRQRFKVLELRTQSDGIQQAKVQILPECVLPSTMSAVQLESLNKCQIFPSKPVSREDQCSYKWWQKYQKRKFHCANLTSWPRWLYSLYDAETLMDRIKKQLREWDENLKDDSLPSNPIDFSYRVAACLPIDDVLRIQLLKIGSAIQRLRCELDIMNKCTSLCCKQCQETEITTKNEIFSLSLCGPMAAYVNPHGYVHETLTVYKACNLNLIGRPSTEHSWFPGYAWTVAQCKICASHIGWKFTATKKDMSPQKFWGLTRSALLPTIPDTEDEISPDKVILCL

Sequence of Protein cereblon/GTPase KRas (P01116 whole entry G12D, stated change not applied): as the sequence (P01116 whole entry G12D) above
Sequence of Protein cereblon/GTPase KRas (Q96SW2 whole entry, stated change not applied): as the sequence (Q96SW2 whole entry partner) above

Turning to `C#Cc1c(F)ccc2cc(O)cc(-c3ncc4c(N5C[C@H]6CC[C@@H](C5)N6)nc(OC[C@@H]5C[C@@H](OC6CCN(c7ccc8c(c7F)CN(C7CCC(=O)NC7=O)C8=O)CC6)CN5C)nc4c3F)c12` (some centres undefined), in experiment [1], the DC50 is not above 100 nM. Besides, the maximum response (Emax) in experiment [2] was more than 70%.
With `C#Cc1c(F)ccc2cc(O)cc(-c3ncc4c(N5CC6CCC(C5)N6)nc(OC[C@]56CCCN5[C@H](CN5CCN(CC7CCN(c8ccc9c(c8)CN(C8CCC(=O)NC8=O)C9=O)CC7)CC5)CC6)nc4c3F)c12` (some centres undefined), the DC50 in experiment [1] is not above 100 nM. Moreover, the maximal response (Emax) in experiment [2] is more than 70%.
For `C#Cc1c(F)ccc2cc(O)cc(-c3ncc4c(N5C[C@H]6CC[C@@H](C5)N6)nc(OCCN5CCC(CC6CCN(CC7CCN(c8ccc9c(c8)n(C)c(=O)n9C8CCC(=O)NC8=O)CC7)CC6)CC5)nc4c3F)c12` (some centres undefined), in experiment [1], the half-maximal degradation concentration (DC50) is not above 100 nM. Also, the Emax in experiment [2] was more than 70%.
As for `C#Cc1c(F)ccc2cc(O)cc(-c3ncc4c(N5C[C@H]6CC[C@@H](C5)N6)nc(OCCN5CCC(C(F)(F)C6CCN(CC7CCN(c8ccc9c(c8F)CN(C8CCC(=O)NC8=O)C9=O)CC7)CC6)CC5)nc4c3F)c12` (some centres undefined), in experiment [1], the DC50 is not above 100 nM. The Emax in experiment [2] was more than 70%.
`C#Cc1c(F)ccc2cc(O)cc(-c3ncc4c(N5C[C@H]6CC[C@@H](C5)N6)nc(OCCN5CCC6(CC5)CCN(CC5CCN(c7ccc8c(c7)CN(C7CCC(=O)NC7=O)C8=O)CC5)CC6)nc4c3F)c12` (some centres undefined): the DC50 in experiment [1] is not above 100 nM. Besides, the Emax in experiment [2] is more than 70%.
Regarding `C#Cc1c(F)ccc2cc(O)cc(-c3ncc4c(N5C[C@H]6CC[C@@H](C5)N6)nc(OCCN5CCC(CC6CCN(CC7CCN(c8ccc9c(c8)CN(C8CCC(=O)NC8=O)C9=O)CC7)CC6)CC5)nc4c3F)c12` (some centres undefined), in experiment [1], the DC50 was not above 100 nM. In addition, in experiment [2], the Emax is more than 70%.
For the molecule `C#Cc1c(F)ccc2cc(O)cc(-c3ncc4c(N5C[C@H]6CC[C@@H](C5)N6)nc(OCCN5CCC(CN6CC7(CCN(c8ccc9c(c8)CN(C8CCC(=O)NC8=O)C9=O)CC7)C6)CC5)nc4c3F)c12` (some centres undefined), in experiment [1], the DC50 was not above 100 nM. Further, the maximal response (Emax) in experiment [2] was more than 70%.
The matching figures for `C#Cc1c(F)ccc2cc(O)cc(-c3ncc4c(N5C[C@H]6CC[C@@H](C5)N6)nc(OCCN5CCC(CC6CCN(CC7CCN(c8ccc9c(c8F)CN(C8CCC(=O)NC8=O)C9=O)CC7)CC6)CC5)nc4c3F)c12` (some centres undefined): not above 100 nM and more than 70%.
Take `C#Cc1c(F)ccc2cc(O)cc(-c3ncc4c(N5C[C@H]6CC[C@@H](C5)N6)nc(OC[C@@H]5C[C@@H](OC6CCN(CC7CCN(c8ccc9c(c8)n(C)c(=O)n9C8CCC(=O)NC8=O)CC7)CC6)CN5C)nc4c3F)c12` (some centres undefined): in experiment [1], the DC50 was not above 100 nM. Further, in experiment [2], the Emax is more than 70%.
On to `C#Cc1c(F)ccc2cc(O)cc(-c3ncc4c(N5C[C@H]6CC[C@@H](C5)N6)nc(OCCN5CCC(CC6(F)CCN(CC7CCN(c8ccc9c(c8)CN(C8CCC(=O)NC8=O)C9=O)CC7)CC6)CC5)nc4c3F)c12` (some centres undefined), for which, in experiment [1], the DC50 is more than 1000 nM. The Emax in experiment [2] was found to be 25%.
With `C#Cc1c(F)ccc2cc(O)cc(-c3ncc4c(N5C[C@H]6CC[C@@H](C5)N6)nc(OCCN5CCC(CN6CCC7(CC6)CCN(c6ccc8c(c6F)CN(C6CCC(=O)NC6=O)C8=O)CC7)CC5)nc4c3F)c12` (some centres undefined), in experiment [1], the DC50 was not above 100 nM. Further, the Emax in experiment [2] was more than 70%.
On to `C#Cc1c(F)ccc2cc(O)cc(-c3ncc4c(N5C[C@H]6CC[C@@H](C5)N6)nc(OCCN5CCC(CN6CCC7(CC6)CCN(c6ccc8c(c6)CN(C6CCC(=O)NC6=O)C8=O)CC7)CC5)nc4c3F)c12` (some centres undefined), for which the DC50 in experiment [1] is not above 100 nM. Also, in experiment [2], the Emax is more than 70%.
